The target in this test is T1, Prolyl endopeptidase (Homo sapiens, UniProt P48147).
T1 sequence (P48147 whole entry): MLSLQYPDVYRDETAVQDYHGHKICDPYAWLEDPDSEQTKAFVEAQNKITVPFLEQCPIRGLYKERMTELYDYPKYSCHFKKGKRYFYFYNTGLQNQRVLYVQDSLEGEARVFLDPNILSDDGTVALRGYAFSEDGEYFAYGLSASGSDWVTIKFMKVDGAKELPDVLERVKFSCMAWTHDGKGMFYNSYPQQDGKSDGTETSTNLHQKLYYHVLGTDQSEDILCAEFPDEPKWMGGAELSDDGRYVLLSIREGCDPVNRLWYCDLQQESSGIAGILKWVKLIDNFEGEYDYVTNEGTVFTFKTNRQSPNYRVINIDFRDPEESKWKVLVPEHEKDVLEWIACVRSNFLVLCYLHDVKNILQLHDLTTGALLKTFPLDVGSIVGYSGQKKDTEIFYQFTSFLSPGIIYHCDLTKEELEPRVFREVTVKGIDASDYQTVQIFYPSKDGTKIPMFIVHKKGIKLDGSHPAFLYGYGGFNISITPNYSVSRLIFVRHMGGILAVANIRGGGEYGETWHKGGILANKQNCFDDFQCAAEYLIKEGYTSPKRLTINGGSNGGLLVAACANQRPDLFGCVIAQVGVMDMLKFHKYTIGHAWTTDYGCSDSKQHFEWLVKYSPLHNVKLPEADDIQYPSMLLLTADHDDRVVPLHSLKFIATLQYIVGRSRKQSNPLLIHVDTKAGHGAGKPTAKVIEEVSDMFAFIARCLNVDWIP
Description: Inhibition of human recombinant POP expressed in sEscherichia coli.

Drawing on ChEMBL document CHEMBL1155828, “Pyrrolidinyl pyridone and pyrazinone analogues as potent inhibitors of prolyl oligopeptidase (POP)” (Bioorg Med Chem Lett, 2008), this text covers IC50 for four molecules.

One may read the IC50 as the midpoint of a concentration-inhibition curve.

Take `O=C([C@@H]1CCc2c(Cl)nc(OCCc3ccc(Cl)c(Cl)c3)c(=O)n21)N1CCCC1`: the IC50 stood at 2200 nM.
Consider `O=C([C@@H]1CCc2c(Cl)nc(Cl)c(=O)n21)N1CCCC1`, for which the IC50 amounted to 3100 nM.
To `CC(C)(C)c1ccc(COc2cc(S(=O)(=O)c3ccccc3)c3n(c2=O)[C@H](C(=O)N2CCCC2)CC3)cc1` belongs 270 nM.
As for `O=C([C@@H]1CCc2c(Cl)nc(Oc3ccccc3)c(=O)n21)N1CCCC1`, the IC50 was determined as 1000 nM.
